Measurements taken from the Kinase Knowledgebase extract (Sharma et al. 2016).

How the values were obtained:
Experiment in all cases: Enzyme Assay
PIK3CA (human) = PIK3CA (human) (UniProt P42336)
PIK3CG (human) = PIK3CG (human) (UniProt P48736)
PIK3CB (Human) = PIK3CB (Human) (UniProt P42338)
PIK3CD (Human) = PIK3CD (Human) (UniProt O00329)
Chain of PIK3CD (Human) (O00329 whole entry, looked up): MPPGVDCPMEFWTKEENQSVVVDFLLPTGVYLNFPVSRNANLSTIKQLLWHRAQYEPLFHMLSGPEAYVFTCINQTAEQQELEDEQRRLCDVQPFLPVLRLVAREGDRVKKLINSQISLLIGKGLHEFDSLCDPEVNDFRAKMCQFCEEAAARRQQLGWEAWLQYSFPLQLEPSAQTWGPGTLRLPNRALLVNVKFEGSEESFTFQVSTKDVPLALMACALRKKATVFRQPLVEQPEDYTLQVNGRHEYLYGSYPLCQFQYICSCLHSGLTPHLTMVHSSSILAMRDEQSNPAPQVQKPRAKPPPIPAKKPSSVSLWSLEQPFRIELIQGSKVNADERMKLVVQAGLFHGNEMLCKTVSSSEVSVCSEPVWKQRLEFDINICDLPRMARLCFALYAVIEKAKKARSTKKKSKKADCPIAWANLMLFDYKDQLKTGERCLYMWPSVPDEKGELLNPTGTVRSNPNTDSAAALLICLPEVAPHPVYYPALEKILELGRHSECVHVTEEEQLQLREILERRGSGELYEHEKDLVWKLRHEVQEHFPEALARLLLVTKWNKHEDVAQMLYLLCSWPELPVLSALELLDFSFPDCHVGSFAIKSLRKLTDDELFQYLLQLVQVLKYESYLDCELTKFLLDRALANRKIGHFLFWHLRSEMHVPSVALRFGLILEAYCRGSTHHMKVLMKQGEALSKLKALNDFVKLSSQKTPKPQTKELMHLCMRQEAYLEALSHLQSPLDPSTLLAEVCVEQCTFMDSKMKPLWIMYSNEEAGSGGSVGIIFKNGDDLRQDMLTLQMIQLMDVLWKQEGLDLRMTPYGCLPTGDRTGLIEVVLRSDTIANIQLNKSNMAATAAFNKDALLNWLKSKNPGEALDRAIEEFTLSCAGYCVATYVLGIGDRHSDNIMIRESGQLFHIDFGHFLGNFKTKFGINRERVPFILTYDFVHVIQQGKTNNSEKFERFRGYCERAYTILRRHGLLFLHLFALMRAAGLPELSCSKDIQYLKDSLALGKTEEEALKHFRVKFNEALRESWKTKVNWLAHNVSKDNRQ

Chain of PIK3CA (human) (P42336 whole entry, looked up): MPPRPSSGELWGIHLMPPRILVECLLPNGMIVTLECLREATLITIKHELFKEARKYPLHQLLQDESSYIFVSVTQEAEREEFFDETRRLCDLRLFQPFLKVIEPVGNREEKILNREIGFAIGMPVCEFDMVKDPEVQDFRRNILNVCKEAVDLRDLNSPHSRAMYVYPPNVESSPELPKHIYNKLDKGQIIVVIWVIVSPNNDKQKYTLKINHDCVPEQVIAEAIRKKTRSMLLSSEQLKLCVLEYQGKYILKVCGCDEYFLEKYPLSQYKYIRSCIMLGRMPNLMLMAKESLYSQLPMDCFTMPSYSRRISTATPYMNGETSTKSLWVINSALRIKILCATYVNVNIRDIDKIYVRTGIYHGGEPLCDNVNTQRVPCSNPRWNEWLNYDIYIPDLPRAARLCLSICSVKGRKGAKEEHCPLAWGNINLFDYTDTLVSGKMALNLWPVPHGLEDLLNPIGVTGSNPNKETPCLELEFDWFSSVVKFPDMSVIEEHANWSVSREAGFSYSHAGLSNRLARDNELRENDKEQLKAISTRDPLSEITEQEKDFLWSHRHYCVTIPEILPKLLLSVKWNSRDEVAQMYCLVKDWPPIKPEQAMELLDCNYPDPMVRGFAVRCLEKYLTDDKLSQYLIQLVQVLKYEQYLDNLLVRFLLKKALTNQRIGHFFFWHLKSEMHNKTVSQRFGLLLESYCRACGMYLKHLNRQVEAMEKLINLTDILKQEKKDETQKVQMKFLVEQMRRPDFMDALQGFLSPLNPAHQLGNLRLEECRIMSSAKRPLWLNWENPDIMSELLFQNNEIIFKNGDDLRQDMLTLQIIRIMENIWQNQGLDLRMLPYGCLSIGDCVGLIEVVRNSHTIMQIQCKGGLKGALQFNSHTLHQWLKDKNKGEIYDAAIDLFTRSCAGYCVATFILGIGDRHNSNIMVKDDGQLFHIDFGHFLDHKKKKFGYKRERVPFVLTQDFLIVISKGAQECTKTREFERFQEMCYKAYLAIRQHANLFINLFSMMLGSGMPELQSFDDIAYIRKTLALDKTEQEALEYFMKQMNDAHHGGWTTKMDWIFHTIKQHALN
Chain of PIK3CB (Human) (P42338 whole entry, looked up): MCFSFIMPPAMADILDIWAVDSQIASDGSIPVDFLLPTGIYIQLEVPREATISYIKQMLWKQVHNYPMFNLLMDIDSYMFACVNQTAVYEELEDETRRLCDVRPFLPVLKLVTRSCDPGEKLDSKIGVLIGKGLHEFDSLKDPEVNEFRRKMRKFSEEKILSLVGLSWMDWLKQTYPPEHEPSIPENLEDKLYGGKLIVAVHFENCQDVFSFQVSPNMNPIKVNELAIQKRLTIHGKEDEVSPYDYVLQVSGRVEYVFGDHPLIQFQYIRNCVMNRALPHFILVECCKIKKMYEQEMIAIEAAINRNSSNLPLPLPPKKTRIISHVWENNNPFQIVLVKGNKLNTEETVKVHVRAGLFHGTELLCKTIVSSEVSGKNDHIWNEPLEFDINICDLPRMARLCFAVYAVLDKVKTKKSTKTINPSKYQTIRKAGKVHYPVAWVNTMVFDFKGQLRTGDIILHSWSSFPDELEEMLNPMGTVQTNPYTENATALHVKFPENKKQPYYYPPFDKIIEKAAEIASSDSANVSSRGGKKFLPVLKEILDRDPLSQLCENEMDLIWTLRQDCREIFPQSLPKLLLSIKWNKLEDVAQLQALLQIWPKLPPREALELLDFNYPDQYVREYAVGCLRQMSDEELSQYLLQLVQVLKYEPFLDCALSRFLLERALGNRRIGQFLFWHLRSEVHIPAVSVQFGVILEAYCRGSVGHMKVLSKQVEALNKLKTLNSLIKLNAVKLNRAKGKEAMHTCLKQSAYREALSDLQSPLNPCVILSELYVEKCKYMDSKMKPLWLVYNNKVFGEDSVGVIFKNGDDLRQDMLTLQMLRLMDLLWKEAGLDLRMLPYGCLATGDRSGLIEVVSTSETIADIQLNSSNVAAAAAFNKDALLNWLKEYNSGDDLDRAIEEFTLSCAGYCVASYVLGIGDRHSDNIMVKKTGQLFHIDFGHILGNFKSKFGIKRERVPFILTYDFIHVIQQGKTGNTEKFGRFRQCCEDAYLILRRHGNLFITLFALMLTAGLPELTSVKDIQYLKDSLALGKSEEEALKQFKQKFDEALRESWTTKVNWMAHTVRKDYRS
Chain of PIK3CG (human) (P48736 whole entry, looked up): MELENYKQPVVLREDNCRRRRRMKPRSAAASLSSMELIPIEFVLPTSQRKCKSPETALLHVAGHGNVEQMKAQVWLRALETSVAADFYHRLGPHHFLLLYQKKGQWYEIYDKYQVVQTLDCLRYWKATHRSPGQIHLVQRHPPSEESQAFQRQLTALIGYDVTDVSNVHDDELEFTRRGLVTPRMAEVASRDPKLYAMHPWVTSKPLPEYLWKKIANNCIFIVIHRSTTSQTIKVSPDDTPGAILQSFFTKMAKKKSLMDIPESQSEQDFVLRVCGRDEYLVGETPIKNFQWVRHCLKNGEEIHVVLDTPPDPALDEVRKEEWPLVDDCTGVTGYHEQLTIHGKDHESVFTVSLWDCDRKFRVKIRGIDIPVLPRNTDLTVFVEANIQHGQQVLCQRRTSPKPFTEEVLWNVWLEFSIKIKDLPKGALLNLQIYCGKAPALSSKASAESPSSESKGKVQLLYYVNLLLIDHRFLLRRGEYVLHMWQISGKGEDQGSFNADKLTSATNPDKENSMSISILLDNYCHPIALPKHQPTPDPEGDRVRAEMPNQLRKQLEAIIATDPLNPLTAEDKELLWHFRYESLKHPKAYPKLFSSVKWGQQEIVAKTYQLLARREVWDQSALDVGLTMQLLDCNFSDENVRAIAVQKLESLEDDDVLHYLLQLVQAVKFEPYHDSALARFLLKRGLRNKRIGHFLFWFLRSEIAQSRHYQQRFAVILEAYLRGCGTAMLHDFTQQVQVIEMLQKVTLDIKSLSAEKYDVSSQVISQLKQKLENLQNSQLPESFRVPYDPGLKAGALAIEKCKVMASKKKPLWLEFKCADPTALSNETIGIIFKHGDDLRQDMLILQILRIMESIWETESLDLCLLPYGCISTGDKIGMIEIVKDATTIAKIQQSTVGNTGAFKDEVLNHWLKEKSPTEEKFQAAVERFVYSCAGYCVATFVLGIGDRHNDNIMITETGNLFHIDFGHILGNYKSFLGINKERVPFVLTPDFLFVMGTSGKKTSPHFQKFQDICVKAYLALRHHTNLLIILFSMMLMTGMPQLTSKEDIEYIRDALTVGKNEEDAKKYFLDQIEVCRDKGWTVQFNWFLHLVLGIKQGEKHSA

IC50 (PIK3CA (human)) [nM] | IC50 (PIK3CG (human)) [nM] | IC50 (PIK3CB (Human)) [nM] | IC50 (PIK3CD (Human)) [nM] | Structure (SMILES)
6 | 145 | 48 | – | Nc1ncc(-c2cc(N3C(=O)O[C@H]4[C@H](O)CC[C@H]43)nc(N3CCOCC3)n2)c(C(F)(F)F)n1
5 | – | – | – | C[C@@H](O)C[C@H]1OC(=O)N(c2cc(-c3cnc(N)nc3C(F)(F)F)nc(N3CCOCC3)n2)[C@H]1C
– | 464 | – | 80 | Nc1ncc(-c2cc(N3CCOCC3)nc(N3CCOCC3)n2)c(C(F)(F)F)n1
134 | – | 875 | 1040 | Nc1cc(C(F)(F)F)c(-c2cc(N3CCOC(c4ccccc4)C3)nc(N3CCOCC3)n2)cn1 (stereo not given)
107 | 8790 | 192 | 153 | Nc1cc(C(F)(F)F)c(-c2cc(N3CCN(c4ccccc4)C3=O)nc(N3CCOCC3)n2)cn1
21 | 529 | 6 | 17 | Nc1ncc(-c2cc(N3C(=O)OC[C@@H]3CO)nc(N3CCOCC3)n2)c(C(F)(F)F)n1
359 | 4320 | 1250 | 692 | Nc1cc(C(F)(F)F)c(-c2cc(N3CCC(=O)CC3)nc(N3CCOCC3)n2)cn1
592 | 4630 | 2750 | 2320 | Nc1cc(C(F)(F)F)c(-c2cc(N3CCS(=O)(=O)CC3)nc(N3CCOCC3)n2)cn1
5 | 290 | 124 | – | C[C@H]1[C@@H](CC(C)(C)O)OC(=O)N1c1cc(-c2cnc(N)nc2C(F)(F)F)nc(N2CCOCC2)n1.C[C@H]1[C@H](CC(C)(C)O)OC(=O)N1c1cc(-c2cnc(N)nc2C(F)(F)F)nc(N2CCOCC2)n1
5 | 205 | 11 | – | C[C@H](O)C[C@H]1OC(=O)N(c2cc(-c3cnc(N)nc3C(F)(F)F)nc(N3CCOCC3)n2)[C@H]1C
125 | 5270 | 214 | 296 | Nc1cc(C(F)(F)F)c(-c2cc(N3CCCCC3=O)nc(N3CCOCC3)n2)cn1
